Test: Binding of human sera to a glycan microarray, measured by fluorescent anti-human antibodies
Conditions: human sera (n=10), FIG. 1
Text: FIG. 1 provides an analysis of binding of human sera (n=10) to a glycan microarray measured by fluorescent anti-human antibodies.
To identify carbohydrates that are naturally or inherently antigenic to the human immune system, one can screen human serum antibodies against immobilized glycans (see FIG. 1). This may reveal carbohydrates, and/or carbohydrate arrangements which are recognised as “non-self”. […] By incorporating rhamnose, or a similar antigenic mimics into the natural oligomannose structure of gp120, the inherent tolerance to the (mannose) sugars of HIV may be overcome.
In the case of “[Man(α1-2)Man(α1-6)][Man(α1-2)Man(α1-3)]Man [D2D3]”, the “antigenicity (human serum antibody reactivity against immobilized glycans)” value (shortened to “antigenicity”) is reported as “naturally antigenic”.
For Man(α1-2)Man(α1-2)Man(α1-3)Man [D1], the “antigenicity” value was “naturally antigenic”.
For OC[C@H]1O[C@H](O)[C@@H](O)[C@@H](O)[C@@H]1O [alpha-D-Mannose], the “antigenicity” value was “is not”.
In the case of C[C@H]1O[C@H](O)[C@@H](O)[C@@H](O)[C@@H]1O [alpha-D-rhamnose, 6-deoxy-alpha-D-mannose], the “antigenicity” value is reported as “antigenic sugar”.

Source: patent US20110045021A1, “SUGAR IMMUNOGENS” (United Therapeutics Corporation, priority 2007, published 2011)
